Here are results for 19 molecules from US20050009820A1, “Thiochromenones used to combat painful conditions and neurodegenerative diseases” (priority 2001, published 2005).

In general, melting point refers to the temperature, or range, at which the solid turns liquid. In general, IC50 refers to the concentration that gives 50% inhibition.

T1 sequence (Q13255 19-1194): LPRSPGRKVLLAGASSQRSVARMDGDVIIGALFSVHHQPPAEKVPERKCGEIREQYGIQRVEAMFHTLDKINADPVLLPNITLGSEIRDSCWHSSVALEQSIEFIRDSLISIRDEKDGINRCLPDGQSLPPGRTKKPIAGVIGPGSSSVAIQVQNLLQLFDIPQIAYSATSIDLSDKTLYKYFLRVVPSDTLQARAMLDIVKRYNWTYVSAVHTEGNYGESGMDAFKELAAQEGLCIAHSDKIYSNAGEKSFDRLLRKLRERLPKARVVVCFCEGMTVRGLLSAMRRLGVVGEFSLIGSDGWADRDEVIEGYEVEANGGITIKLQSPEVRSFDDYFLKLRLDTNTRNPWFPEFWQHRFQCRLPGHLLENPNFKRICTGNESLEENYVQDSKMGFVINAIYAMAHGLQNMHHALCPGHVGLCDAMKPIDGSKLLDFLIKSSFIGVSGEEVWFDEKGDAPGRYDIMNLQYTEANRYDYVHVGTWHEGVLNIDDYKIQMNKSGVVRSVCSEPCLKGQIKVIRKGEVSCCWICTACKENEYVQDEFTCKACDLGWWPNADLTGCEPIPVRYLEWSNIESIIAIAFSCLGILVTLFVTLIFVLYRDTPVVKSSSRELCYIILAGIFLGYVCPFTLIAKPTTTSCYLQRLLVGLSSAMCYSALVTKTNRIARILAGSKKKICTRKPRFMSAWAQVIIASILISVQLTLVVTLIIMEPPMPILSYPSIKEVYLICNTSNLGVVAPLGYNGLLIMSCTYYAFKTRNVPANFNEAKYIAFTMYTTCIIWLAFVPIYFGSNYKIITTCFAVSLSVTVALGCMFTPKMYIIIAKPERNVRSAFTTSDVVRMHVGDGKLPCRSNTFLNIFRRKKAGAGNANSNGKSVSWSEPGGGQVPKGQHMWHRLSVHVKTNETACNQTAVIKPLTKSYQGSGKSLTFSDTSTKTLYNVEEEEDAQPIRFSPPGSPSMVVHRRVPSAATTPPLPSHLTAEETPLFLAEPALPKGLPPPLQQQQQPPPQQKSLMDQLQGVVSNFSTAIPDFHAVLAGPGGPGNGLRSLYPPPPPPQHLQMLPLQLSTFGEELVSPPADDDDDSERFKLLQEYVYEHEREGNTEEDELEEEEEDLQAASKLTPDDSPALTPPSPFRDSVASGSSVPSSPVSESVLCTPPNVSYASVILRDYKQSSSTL

Tested on in one series: not given
Test: not given
Details: not given
For `CC1(C)CCc2c(sc3cc(NS(C)(=O)=O)ccc3c2=O)C1` [Example 2-11, N-(3,3-Dimethyl-9-oxo-2,3,4,9-tetrahydro-1H-thioxanthen-6-yl)methanesulfonamide], the melting point was found to be 272 °C.

Molecule `CC1(C)CCc2c(sc3cc(NS(=O)(=O)c4ccccc4)ccc3c2=O)C1` [Example 2-12, N-(3,3-Dimethyl-9-oxo-2,3,4,9-tetrahydro-1H-thioxanthen-6-yl)benzenesulfonamide] had a melting point of 231 °C.

The molecule `Cc1ccc(S(=O)(=O)Nc2ccc3c(=O)c4c(sc3c2)CC(C)(C)CC4)cc1` [Example 2-13, N-(3,3-Dimethyl-9-oxo-2,3,4,9-tetrahydro-1H-thioxanthen-6-yl)-4-methylbenzenesulfonamide] displayed a melting point of 279 °C.

As for `CC1(C)CCc2c(sc3cc(OS(=O)(=O)Cc4ccccc4OC(F)(F)F)ccc3c2=O)C1` [Example 2-14, 3,3-Dimethyl-9-oxo-2,3,4,9-tetrahydro-1H-thioxanthen-6-yl [2-(trifluoromethoxy)-phenyl]methanesulfonate], the melting point was determined as 249 °C.

Molecule `CC(C)S(=O)(=O)Nc1ccc2c(=O)c3c(sc2c1)CC(C)(C)CC3` [Example 2-15, N-(3,3-Dimethyl-9-oxo-2,3,4,9-tetrahydro-1H-thioxanthen-6-yl)isopropylsulfonamide] gave a melting point of 263 °C.

`CC1(C)CCc2c(sc3cc(-n4cccc4)ccc3c2=O)C1` [Example 2-24, 3,3-Dimethyl-6-(1H-pyrrol-1-yl)-1,2,3,4-tetrahydro-9H-thioxanthen-9-one] came in with a melting point of 169 °C.

Turning to `CCC1CCc2c(sc3cc(-n4cccc4)ccc3c2=O)C1` (stereo not shown) [Example 2-25, 3-Ethyl-6-(1H-pyrrol-1-yl)-1,2,3,4-tetrahydro-9H-thioxanthen-9-one], the melting point came out at 145 °C.

A further series addresses T1, mGluR1 receptor (Homo sapiens, UniProt Q13255).
T1 construct: expressed in transfected cells; host or cells: CHO cells
The experiment in a line: Determination of the activity on the mGluR1 receptor (luciferase luminescence in mGluR1 receptor-expressing CHO cells stimulated with 1 mM glutamate). It counts as cell-based. Particulars: 1 mM glutamate with the test substance, 37° C., 4 h, luminescence readout. The method, then: 1. Determination of the activity on the mGluR1 receptor
mGluR1 receptor-expressing CHO cells are seeded in 96-well plates (Greiner, Frickenhausen, Germany) (20 000 cells/well) and cultivated in ultra CHO medium (Bio-Whittaker, Walkersville, Md., 10% fetal calf serum) for one day. The substances to be tested are initially dissolved in a concentration of 10^−2 M in 100% DMSO and then diluted to the desired concentration with the culture medium. After being washed once with cell culture medium, the cells are incubated with 1 mM glutamate and simultaneously with the substance to be tested at 37° C. for 4 h. The medium is then aspirated off and the cells are lysed with 75 μl of Triton-luciferase buffer (1% Triton X 100, 10% glycerol, 2 mM DTT, 25 mM Na2HPO4, 25 mM TRIS), (530 μM ATP, 470 μM luciferin, 270 μM CoA, 20 mM tricine, 2.67 mM MgSO4, 33.3 mM DTT, 0.1 mM EDTA, pH 7.8). The luminescence is measured after one minute using a camera (Hamamatsu, Japan). Cells incubated only with glutamate show a marked increase in the luminescence compared with controls, while mGluR1 receptor antagonists reduce this concentration-dependently to below the initial luminscence.
In the case of `CCC1CCc2c(sc3cc(-c4nnn[nH]4)ccc3c2=O)C1` (stereo not shown) [Example 1-3, 3-Ethyl-6-(1H-tetrazol-5-yl)-1,2,3,4-tetrahydro-9H-thioxanthen-9-one], the IC50 was determined as 9 nM.

`CCC1CCc2c(sc3cc(-c4cccs4)ccc3c2=O)C1` (stereo not shown) [Example 1-10, 3-Ethyl-6-(2-thienyl)-1,2,3,4-tetrahydro-9H-thioxanthen-9-one] gave an IC50 of 97 nM.

On to `CC1(C)CCc2c(sc3cc(-c4cccc(C#N)c4)ccc3c2=O)C1` [Example 1-27, 3-(3,3-Dimethyl-9-oxo-2,3,4,9-tetrahydro-1H-thioxanthen-6-yl)benzonitrile], for which half-maximal inhibition (IC50) was put at 23 nM.

`CCC1CCc2c(sc3cc(-c4cccc(C#N)c4)ccc3c2=O)C1` (stereo not shown) [Example 1-29, 3-(3-Ethyl-9-oxo-2,3,4,9-tetrahydro-1H-thioxanthen-6-yl)benzonitrile] came in with an IC50 of 21 nM.

`CC1(C)CCc2c(sc3cc(-c4cccnc4)ccc3c2=O)C1` [Example 1-31, 3,3-Dimnethyl-6-(3-pyridinyl)-1,2,3,4-tetrahydro-9H-thioxanthen-9-one]: inhibition was half-maximal at 31 nM (IC50).

In turn, `CCC1CCc2c(sc3cc(-c4noc(=O)[nH]4)ccc3c2=O)C1` (stereo not shown) [Example 1-34, 3-(3-Ethyl-9-oxo-2,3,4,9-tetrahydro-1H-thioxanthen-6-yl)-1,2,4-oxadiazol-5(4H)-one] showed an IC50 of 81 nM.

`CCC1CCc2c(sc3cc(N(C)CCOC)ccc3c2=O)C1` (stereo not shown) [Example 3-21, 3-Ethyl-6-[(2-methoxyethyl)(methyl)amino]-1,2,3,4-tetrahydro-9H-thio-xanthen-9-one] had an IC50 of 22 nM.

`CCC1CCc2c(sc3cc(N4CCCCC4)ccc3c2=O)C1` (stereo not shown) [Example 3-22, 3-Ethyl-6-(1-piperidinyl)-1,2,3,4-tetrahydro-9H-thioxanthen-9-one] returned an IC50 of 13 nM.

`CCC1CCc2c(sc3cc(N4CCCCC4)c(F)cc3c2=O)C1` (stereo not shown) [Example 3-23, 3-Ethyl-7-fluoro-6-(1-piperidinyl)-1,2,3,4-tetrahydro-9H-thioxanthen-9-one] yielded an IC50 of 28 nM.

Molecule `CCC(=O)Nc1ccc2c(=O)c3c(sc2c1)CC(CC)CC3` (stereo not shown) [Example 3-49, N-(3-Ethyl-9-oxo-2,3,4,9-tetrahydro-1H-thioxanthen-6-yl)propanamide] yielded an IC50 of 35 nM.

With `CCC1CCc2c(sc3cc(-c4cncnc4)ccc3c2=O)C1` (stereo not shown) [Example 3-55], inhibition was half-maximal at 35 nM (IC50).

In turn, `CCC1CCc2c(sc3cc(N(C)S(=O)(=O)c4cccc(C#N)c4)ccc3c2=O)C1` (stereo not shown) [Example 4-8, 3-Cyano-N-(3-ethyl-9-oxo-2,3,4,9-tetrahydro-1-thioxanthen-6-yl)-N-methylbenzenesulfonamide] had an IC50 of 25 nM.
